Measured values from patent US20210032205A1, “HETEROARYL SULFONAMIDE COMPOUND AND FORMULATION FOR CONTROLLING HARMFUL ORGANISMS” (Nippon Soda Co., Ltd., priority 2018, published 2021).

Experiments:
Mythimna separata = assay: Efficacy test against Mythimna separata (artificial feed); assay type: in vivo; conditions: second-instar larvae; 1 μl of 5% emulsion (I) in 0.8 g artificial feed; 5 days at 25° C.
Protocol: (§1) Five parts of the compound of the present invention, 93.6 parts of dimethylformamide and 1.4 parts of a polyoxyethylene alkyl aryl ether were mixed together and dissolved to obtain an emulsion (I) containing 5% of the active ingredient.
An emulsion (II) containing 0% of an active ingredient was prepared in the same method as that described above, with the exception that 5 parts of the compound of the present invention was not mixed and dissolved.
(§2) The mortality rate was calculated using the following equation.
(§3) Mortality rate (%)=(number of dead insects/number of test insects)×100
First, 0.8 g of an artificial feed (Insecta LFS, manufactured by Nosan Corporation) and 1 μl of the emulsion (I) were mixed thoroughly, and 0.2 g of the resulting mixture was placed in each of the treatment areas of a plastic test container (volume: 1.4 ml) to complete preparation of a test feed. Two second-instar larvae of Mythimna separata were inoculated into each treatment area, and the plastic test container was sealed with a plastic lid. The sealed container was placed for 5 days in a thermostatic chamber at 25° C. Subsequently, the mortality rate and the amount of feed consumed were checked. In addition, a test for a control area was carried out under the same conditions as those described above, with the exception of replacing the emulsion (I) with the emulsion (II). The test was repeated in both cases.

Spodoptera litura = assay: Efficacy test against Spodoptera litura (cabbage leaf dip); assay type: in vivo; conditions: foliar, 144 h, cabbage leaves soaked 30 seconds, second-instar larvae, 6 days after release, 25° C., read-out: mortality rate against Spodoptera litura
Protocol: as §1, §2, §3
(§4) The emulsion (I) was diluted with water to achieve a concentration of the compound of the present invention of 125 ppm. Cabbage leaves were soaked in the diluted liquid for 30 seconds. These cabbage leaves were then placed in a Petri dish, and five second-instar larvae of Spodoptera litura were released into the dish. The Petri dish closed with a lid was placed in a thermostatic chamber at a temperature of 25° C. and a humidity of 60%. Mortality was investigated 6 days after larvae release, and the mortality rate was calculated. The test was repeated.

Plutella xylostella = assay: Efficacy test against Plutella xylostella (cabbage leaf dip); assay type: in vivo; conditions: foliar, 72 h, cabbage leaves soaked 30 seconds, second-instar larvae, 3 days after release, 25° C., read-out: mortality rate (efficacy test against Plutella xylostella; sentence prints Spodoptera litura)
Protocol: as §1, §2, §3
as §4, with “of Plutella xylostella” for “of Spodoptera litura”, “investigated 3” for “investigated 6”

Meloidogyne incognita = assay: Efficacy test against Meloidogyne incognita (in vitro test); assay type: in vivo; conditions: 48 h, second-instar larvae (L2), 2 days at 15° C., 96-well microplate, read-out: nematode mortality rate against Meloidogyne incognita
Protocol: (§5) A suspension containing about 50 second-instar larvae (L2) of Meloidogyne incognita per 0.2 mL was prepared. The compound of the present invention was dissolved in DMSO, so that a DMSO solution containing the compound at a concentration of 10,000 ppm was prepared. 200 μL of the suspension mentioned above per well and 1.0 μL of the DMSO solution of the compound mentioned above per well were dispensed into each well of a 96-well microplate. The final concentration of the compound of the present invention per well was 50 ppm. The 96-well microplate was placed for 2 days at 15° C. Subsequently, mortality was investigated, and the nematode mortality rate was calculated. […] The test was repeated.

Caenorhabditis elegans = assay: Efficacy test against Caenorhabditis elegans (in vitro test); assay type: in vivo; conditions: 48 h, mixed instars, 2 days at 25° C., 96-well microplate, read-out: nematode mortality rate against Caenorhabditis elegans
Protocol: as §5, with “50 mixed instars” for “50 second-instar larvae (L2)”, “of Caenorhabditis elegans” for “of Meloidogyne incognita”, “[…]” for “10,000 ppm”, “at 25°” for “at 15°”

Heterodera glycines = assay: Efficacy test against Heterodera glycines (in vitro test); assay type: in vivo; conditions: 72 h, second-instar larvae (L2), 3 days at 25° C., 96-well microplate, read-out: nematode mortality rate against Heterodera glycines
Protocol: as §5, with “of Heterodera glycines” for “of Meloidogyne incognita”, “[…]” for “10,000 ppm”, “and 0.2” for “and 1.0”, “was 10” for “was 50”, “for 3” for “for 2”, “at 25°” for “at 15°”

SMILES	mortality rate against Mythimna separata (Mythimna separata) [%]	mortality at 125 ppm (Spodoptera litura) [%]	mortality at 125 ppm (Plutella xylostella) [%]	mortality at 50 ppm (Meloidogyne incognita) [%]	mortality at 50 ppm (Caenorhabditis elegans) [%]	mortality at 10 ppm (Heterodera glycines) [%]	melting point [°C]
O=C(Nc1ccc(C(F)(F)F)cc1)c1ccc(Cl)nc1NS(=O)(=O)C(F)(F)F [Compound A-4]	100	≥ 80	≥ 80	≥ 80	–	–	–
O=C(Nc1ccc(C(F)(F)F)cc1)c1ncc(C(F)(F)F)cc1NS(=O)(=O)C(F)(F)F [Compound A-2]	100	≥ 80	≥ 80	≥ 80	–	–	–
O=C(Nc1ccc(F)c(F)c1)c1cnc(Cl)cc1NS(=O)(=O)C(F)(F)F [Compound A-7]	100	–	–	≥ 80	≥ 80	≥ 80	–
O=C(Nc1cc(F)c(F)cc1-n1cccn1)c1sc(Cl)cc1NS(=O)(=O)C(F)(F)F [Compound A-6]	100	–	–	≥ 80	–	–	–
O=C(Nc1ccc(C(F)(F)F)cc1)c1cc(Cl)ncc1NS(=O)(=O)C(F)(F)F [Compound A-5]	100	–	–	≥ 80	≥ 80	≥ 80	–
COC(=O)c1cc(F)c(F)cc1NC(=O)c1ncc(C(F)(F)F)cc1NS(=O)(=O)C(F)(F)F [Compound A-3]	–	–	–	–	–	–	270
O=C(Nc1ccc(C(F)(F)F)cc1)c1cnc(Cl)cc1NS(=O)(=O)C(F)(F)F [Compound A-1, 6-chloro-N-[4-(trifluoromethyl)phenyl]-4-(trifluoromethylsulfonylamino)pyridine-3-carboxamide]	100	≥ 80	≥ 80	≥ 80	≥ 80	≥ 80	–
